Measured values as given in PMC10762068, “Selective blockade of Cav1.2 (α1C) versus Cav1.3 (α1D) L-type calcium channels by the black mamba toxin calciseptine” (Nature Communications, 2024).
Entries after “also recorded” stand apart in the source; their conditions may differ. Read-outs that look alike come from different tables or passages of the source. Positions of bridges follow the written chain, without caps; N, C: chain ends. No end group written: not given here.

Tests used:
[1] = test system: voltage sensitive K^+ channels; details: cardiac ventricular cells, NlE115 neuroblastoma cells, RINmSF and HIT insulinomas, chicken dorsal root ganglia; cited from earlier work
Description: (§1) Animal venoms constitute an immense reservoir for identification of new toxins and toxin-derived tools for modulating the physiological function of ion channels. In particular, toxins showing three-fingers molecular scaffold class include several cardiotoxic peptides that abound in snake venoms. Three fingers toxin peptides potently block a variety of proteins including nicotinic receptors, acetylcholinesterase, acid-sensitive ion channels (ASIC)[14], as well as cytotoxins that disrupt the lipid membrane. More than 30 years ago, M. Lazdunski ‘s group purified a 60-amino acid three- ...

[2] = test system: skeletal muscle (Cav1.1) L-type Ca^2+ channel; details: cited from earlier work
Description: as §1

[3] = test system: N-type Ca^2+ channel; details: cited from earlier work
Description: as §1

[4] = test system: voltage sensitive Na^+ channels; details: cardiac ventricular cells, NlE115 neuroblastoma cells, RINmSF and HIT insulinomas, chicken dorsal root ganglia; cited from earlier work
Description: as §1

[5] = test system: portal vein, thoracic aorta and uterine smooth muscle; details: cited from earlier work
Description: as §1

[6] = test system: cardiac contractions; details: cited from earlier work
Description: as §1

[7] = test system: T-type Ca^2+ channel; details: cited from earlier work
Description: as §1

[8] = test system: Cav3.1 T-type; experiment: Ca2+ current in HEK-293T cells expressing Cav3.1; assay type: cell-based; details: Cas 300 nM (n=13/N=3) and 1 µM (n=10/N=3); holding -80 mV, step -30 mV
Description: (§2) HEK-293T (RRID:CVCL_2737) were obtained from the European Collection of Authenticated Cell Cultures (ECACC 96121229). The identity of HEK-293T has been confirmed by STR profiling and the cells have been eradicated from mycoplasma at ECACC. We routinely tested the cells for the absence of the mycoplasma contamination. Cells were cultivated at 37 °C in DMEM supplemented with GlutaMax, 10% fetal bovine serum and 1% penicillin/streptomycin (Invitrogen, Fisher Scientific, France). […]
(§3) Macroscopic currents in HEK-293T cells were recorded at room temperature using an Axopatch 200B or Multiclamp 700B patchclamp amplifier (Molecular Devices, Sunnyvale CA). […]
(§4) In all experiments of cellular electrophysiology, we employed synthetized analog of Cas, commercially available at Latoxan (ID: L8109). […] Its measured molecular mass (7036.26 Da average) was in accordance with the mass calculated from sequence data (7036.22 Da). […]
(§5) n=10/N=3) channels. Peak current density wa s recorded starting f rom a holding potential of -80mV using an activating voltage step at -30mV for Cav3.1, f ro m a holding potential of -90mV using an activating voltage step at +20mV for Cav2.2 and f rom a holding potential of -80mV using an activating voltage step at 0mV for Cav2.1. Exam ples of recorded traces are reported. […]

[9] = test system: Cav2.1 P/Q type; experiment: Ca2+ current in HEK-293T cells expressing Cav2.1; assay type: cell-based; details: Cas 300 nM (n=10/N=3) and 1 µM (n=10/N=3); holding -80 mV, step 0 mV
Description: as §2, §3, §4, §5

[10] = target: T1, Cav1.2 (Homo sapiens, UniProt Q13936); experiment: cell-based; assay type: cell-based; details: for L-type Ca2+ current density: mean ± SEM, n=11
T1 construct: expressed in transfected cells; host or cells: HEK-293T
Description: HEK-293T (RRID:CVCL_2737) were obtained from the European Collection of Authenticated Cell Cultures (ECACC 96121229). The identity of HEK-293T has been confirmed by STR profiling and the cells have been eradicated from mycoplasma at ECACC. We routinely tested the cells for the absence of the mycoplasma contamination. Cells were cultivated at 37 °C in DMEM supplemented with GlutaMax, 10% fetal bovine serum and 1% penicillin/streptomycin (Invitrogen, Fisher Scientific, France). Transfections were performed using jet-PEI (Ozyme, France) with a DNA mix containing either the plasmids that code for Cav1.2-GFP, β2a and α2δ (0.8 µg of each) or either the plasmids that code for Cav1.3 (with and without exon 42a), or Cav2.1, or either Cav2.2 combined with β2a and α2δ (0.8 µg of each supplemented with 0.025 µg of a plasmid coding for GFP). For Cav3.1 expression β2a and α2δ subunits were omitted. Plasmids coding for β2a, α2δ and Cav1.3 were created as described previously. Plasmid coding for Cav1.2-GFP was obtained from Dr. Catalucci[60]. After transfection cells were placed at 30 °C for 2–3 days and dissociated with Versene (Invitrogen, Fisher Scientific, France) and plated at a density of ~35 × 10^3 cells per 35 mm Petri dish for electrophysiological recordings, which were performed the following day.
Macroscopic currents in HEK-293T cells were recorded at room temperature using an Axopatch 200B or Multiclamp 700B patchclamp amplifier (Molecular Devices, Sunnyvale CA). […] The extracellular solution contained (in mM): 135 NaCl, 20 TEACl, 5 BaCl2, 1 MgCl2, and 10 HEPES (pH adjusted to 7.25 with KOH, ~330 mOsm).
In all experiments of cellular electrophysiology, we employed synthetized analog of Cas, commercially available at Latoxan (ID: L8109). The native peptide was purified from the venom of Dendroaspis polylepis purchased from Latoxan, as previoulsly described. The pure peptide was obtained after gel filtration, cation exchange and C18 reversed phase chromatography.

[11] = HEK-293T, read-out: inhibition of ICav1.2

T1 sequence (Q13936 whole entry): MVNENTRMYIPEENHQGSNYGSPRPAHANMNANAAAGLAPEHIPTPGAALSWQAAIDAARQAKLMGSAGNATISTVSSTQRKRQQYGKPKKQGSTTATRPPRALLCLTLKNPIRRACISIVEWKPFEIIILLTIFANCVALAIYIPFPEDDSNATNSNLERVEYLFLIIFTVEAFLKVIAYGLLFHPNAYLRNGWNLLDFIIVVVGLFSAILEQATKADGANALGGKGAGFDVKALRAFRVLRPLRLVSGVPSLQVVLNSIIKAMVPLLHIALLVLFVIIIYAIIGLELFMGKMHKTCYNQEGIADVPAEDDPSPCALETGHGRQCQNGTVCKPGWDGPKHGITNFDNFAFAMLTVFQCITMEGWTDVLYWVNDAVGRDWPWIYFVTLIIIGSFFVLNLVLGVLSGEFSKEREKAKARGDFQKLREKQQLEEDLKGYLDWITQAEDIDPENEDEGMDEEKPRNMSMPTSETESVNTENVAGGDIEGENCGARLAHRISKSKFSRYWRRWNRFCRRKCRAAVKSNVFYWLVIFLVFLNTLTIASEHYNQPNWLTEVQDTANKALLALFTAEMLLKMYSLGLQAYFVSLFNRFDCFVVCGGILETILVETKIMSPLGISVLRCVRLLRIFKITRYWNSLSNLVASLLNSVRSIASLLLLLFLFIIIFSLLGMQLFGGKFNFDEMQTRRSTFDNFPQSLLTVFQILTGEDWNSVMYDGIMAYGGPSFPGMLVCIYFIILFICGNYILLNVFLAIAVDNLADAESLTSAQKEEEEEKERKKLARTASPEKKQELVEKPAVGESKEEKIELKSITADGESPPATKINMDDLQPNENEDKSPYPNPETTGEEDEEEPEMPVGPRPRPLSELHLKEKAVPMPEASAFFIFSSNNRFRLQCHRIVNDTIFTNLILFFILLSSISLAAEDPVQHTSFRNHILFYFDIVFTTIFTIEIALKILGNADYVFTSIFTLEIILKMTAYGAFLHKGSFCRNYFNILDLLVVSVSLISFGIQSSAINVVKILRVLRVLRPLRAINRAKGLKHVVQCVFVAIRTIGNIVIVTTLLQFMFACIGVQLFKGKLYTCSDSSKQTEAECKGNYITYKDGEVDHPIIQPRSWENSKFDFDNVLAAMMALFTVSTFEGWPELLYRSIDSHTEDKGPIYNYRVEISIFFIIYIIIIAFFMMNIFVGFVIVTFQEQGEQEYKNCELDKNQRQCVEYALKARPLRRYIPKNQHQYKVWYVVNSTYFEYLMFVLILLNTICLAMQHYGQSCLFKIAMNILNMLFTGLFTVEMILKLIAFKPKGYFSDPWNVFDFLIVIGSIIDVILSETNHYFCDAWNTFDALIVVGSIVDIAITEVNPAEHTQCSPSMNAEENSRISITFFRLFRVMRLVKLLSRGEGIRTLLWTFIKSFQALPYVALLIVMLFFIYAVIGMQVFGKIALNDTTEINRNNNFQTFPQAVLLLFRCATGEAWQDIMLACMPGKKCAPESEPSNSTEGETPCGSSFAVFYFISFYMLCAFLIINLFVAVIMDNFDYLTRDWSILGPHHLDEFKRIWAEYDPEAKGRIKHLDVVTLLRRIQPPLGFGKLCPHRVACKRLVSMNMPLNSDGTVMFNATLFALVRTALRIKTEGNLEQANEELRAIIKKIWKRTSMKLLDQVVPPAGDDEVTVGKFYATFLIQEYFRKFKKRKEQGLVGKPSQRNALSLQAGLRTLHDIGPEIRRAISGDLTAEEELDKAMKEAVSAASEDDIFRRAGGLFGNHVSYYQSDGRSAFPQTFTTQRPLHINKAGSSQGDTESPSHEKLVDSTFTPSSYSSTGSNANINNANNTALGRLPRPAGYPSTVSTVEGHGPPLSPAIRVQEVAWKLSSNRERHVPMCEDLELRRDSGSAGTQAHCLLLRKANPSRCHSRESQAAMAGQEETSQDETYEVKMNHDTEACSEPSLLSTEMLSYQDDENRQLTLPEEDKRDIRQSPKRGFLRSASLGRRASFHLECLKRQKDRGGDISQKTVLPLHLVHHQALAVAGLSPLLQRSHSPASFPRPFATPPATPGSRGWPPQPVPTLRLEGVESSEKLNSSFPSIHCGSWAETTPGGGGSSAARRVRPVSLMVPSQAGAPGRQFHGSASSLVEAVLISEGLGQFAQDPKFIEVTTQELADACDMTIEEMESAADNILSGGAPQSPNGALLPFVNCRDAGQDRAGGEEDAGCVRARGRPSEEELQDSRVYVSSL
T1 sequence (Q08289 whole entry partner): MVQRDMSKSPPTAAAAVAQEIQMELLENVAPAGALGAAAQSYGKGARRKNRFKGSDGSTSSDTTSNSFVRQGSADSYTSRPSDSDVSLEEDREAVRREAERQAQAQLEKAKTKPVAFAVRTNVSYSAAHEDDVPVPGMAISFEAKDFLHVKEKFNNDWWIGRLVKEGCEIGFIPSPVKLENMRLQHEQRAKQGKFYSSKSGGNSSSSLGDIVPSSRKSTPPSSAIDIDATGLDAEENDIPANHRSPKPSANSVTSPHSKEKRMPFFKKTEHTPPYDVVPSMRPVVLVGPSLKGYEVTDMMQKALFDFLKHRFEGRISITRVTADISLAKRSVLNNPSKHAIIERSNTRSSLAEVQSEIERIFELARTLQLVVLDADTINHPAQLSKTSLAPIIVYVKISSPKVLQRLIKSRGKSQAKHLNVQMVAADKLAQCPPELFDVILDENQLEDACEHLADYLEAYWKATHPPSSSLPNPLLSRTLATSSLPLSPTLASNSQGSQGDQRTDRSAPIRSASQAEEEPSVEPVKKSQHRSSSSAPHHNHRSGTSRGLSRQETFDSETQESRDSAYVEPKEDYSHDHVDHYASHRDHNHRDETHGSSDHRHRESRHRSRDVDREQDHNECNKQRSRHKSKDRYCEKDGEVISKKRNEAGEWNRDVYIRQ
T1 sequence (P54289 25-956 partner limits assumed): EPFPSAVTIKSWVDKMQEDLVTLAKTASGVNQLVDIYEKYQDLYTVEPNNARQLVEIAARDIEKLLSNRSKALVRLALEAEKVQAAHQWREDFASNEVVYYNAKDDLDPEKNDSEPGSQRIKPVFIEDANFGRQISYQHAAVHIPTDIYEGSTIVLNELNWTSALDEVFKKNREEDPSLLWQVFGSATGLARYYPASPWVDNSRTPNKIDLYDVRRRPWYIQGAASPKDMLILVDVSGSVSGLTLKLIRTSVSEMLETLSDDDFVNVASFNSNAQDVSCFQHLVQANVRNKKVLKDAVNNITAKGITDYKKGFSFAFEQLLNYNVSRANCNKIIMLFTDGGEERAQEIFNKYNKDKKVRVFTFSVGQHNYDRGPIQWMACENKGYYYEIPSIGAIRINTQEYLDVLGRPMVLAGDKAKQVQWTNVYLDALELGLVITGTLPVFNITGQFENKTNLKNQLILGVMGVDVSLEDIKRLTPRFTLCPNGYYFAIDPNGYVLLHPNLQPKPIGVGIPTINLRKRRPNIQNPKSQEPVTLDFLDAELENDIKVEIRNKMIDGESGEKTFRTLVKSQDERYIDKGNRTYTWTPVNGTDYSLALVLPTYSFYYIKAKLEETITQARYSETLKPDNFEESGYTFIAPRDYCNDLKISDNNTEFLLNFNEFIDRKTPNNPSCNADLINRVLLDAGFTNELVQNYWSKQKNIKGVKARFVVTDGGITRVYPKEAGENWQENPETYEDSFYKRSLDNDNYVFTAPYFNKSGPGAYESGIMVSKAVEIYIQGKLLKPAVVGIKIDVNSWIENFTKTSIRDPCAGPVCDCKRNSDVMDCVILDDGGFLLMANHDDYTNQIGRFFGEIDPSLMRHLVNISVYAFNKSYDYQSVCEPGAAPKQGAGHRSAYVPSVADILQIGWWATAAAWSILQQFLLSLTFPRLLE
T1 sequence (P54289 957-1103 partner limits assumed): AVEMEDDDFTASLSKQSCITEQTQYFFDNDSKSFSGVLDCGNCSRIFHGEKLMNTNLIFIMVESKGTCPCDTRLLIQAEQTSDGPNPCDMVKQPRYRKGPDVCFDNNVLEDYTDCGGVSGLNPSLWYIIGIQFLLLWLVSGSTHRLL

## RICYIHKASLPRATKTCVENTCYKMFIRTQREYISERGCGCPTAMWPYQTECCKGDRCNK (disulfide 3-22, 17-39, 41-52, 53-58 (inferred)) [Cas, calciseptine]
[1]
  effect on voltage sensitive K+ channels: does not affect
[2]
  effect on skeletal muscle (Cav1.1) L-type Ca2+ channel: without affecting
[3]
  effect on N-type Ca2+ channel: without affecting
[4]
  effect on voltage sensitive Na+ channels: does not affect
[5]
  effect on smooth muscle contraction: abolish all contraction
[6]
  effect on cardiac contractions: completely eliminate cardiac contractions
[7]
  effect on T-type Ca2+ channel: without affecting
[8]
  effect on Cav3.1 current: failed to detect inhibitory effect; also recorded: had no effect
[9]
  effect on Cav2.1 current: failed to detect inhibitory effect; also recorded: had no effect
[10]; Cas 300 nM, n=6/N=3, holding -60 mV
  effect on outward-going ICav1.2 at +150 mV: almost no effect
[10]; Cas 300 nM, 0 mV, Ctrl -9.25± 2,32
  L-type Ca2+ current density: -3.32± 0.87 pA/pF
[10]; Cas 300 nM, +10 mV, Ctrl -9.90± 1,94
  L-type Ca2+ current density: -3.92± 0.94 pA/pF
[10]; Cas 300 nM, +20 mV, Ctrl -8.05± 1.41
  L-type Ca2+ current density: -3.08± 0.77 pA/pF
[10]; Cas 300 nM, +30 mV, Ctrl -4.66± 0.82
  L-type Ca2+ current density: -1.53± 0.51 pA/pF
[10]; Cas 300 nM, -10 mV, Ctrl -5.72± 1.83
  L-type Ca2+ current density: -1.76± 0.46 pA/pF
[10]; Cas 300 nM, -20 mV, Ctrl -1.41± 0.28
  L-type Ca2+ current density: -0.70± 0.17 pA/pF
[10]; [11]
  inhibition at 0.1 µM: 37%
  inhibition at 0.3 µM: 70%
  inhibition at 1 µM: 80%
[10]; HEK-293T, read-out: inhibition of ICav1.2 (I-V relationship)
  inhibition at 0.3 µM: ~60%
[10]; during Cas application, control −3 ± 2 mV, n = 8, Wilcoxon p = 0.0078
  V0.5 for activation: 3 ± 2 mV
